In PMC5848512, “The Penicillium chrysogenum transporter PcAraT enables high-affinity, glucose-insensitive L-arabinose transport in Saccharomyces cerevisiae” (Biotechnology for Biofuels, 2018):

Key:
[1] = target: T1, PcAraT (Penicillium rubens, UniProt B6HE12); test: inhibition of […]-L-arabinose uptake in transporter-deleted yeast cells; format: cell-based
T1 construct: gene Pc20g01790; full-length ORF, codon-pair optimized synthetic gene, pRS313-PcaraT (HXT7 promoter) in S. cerevisiae DS68625 (hxt1-7, gal2 deleted)
T1 sequence (B6HE12 1-511): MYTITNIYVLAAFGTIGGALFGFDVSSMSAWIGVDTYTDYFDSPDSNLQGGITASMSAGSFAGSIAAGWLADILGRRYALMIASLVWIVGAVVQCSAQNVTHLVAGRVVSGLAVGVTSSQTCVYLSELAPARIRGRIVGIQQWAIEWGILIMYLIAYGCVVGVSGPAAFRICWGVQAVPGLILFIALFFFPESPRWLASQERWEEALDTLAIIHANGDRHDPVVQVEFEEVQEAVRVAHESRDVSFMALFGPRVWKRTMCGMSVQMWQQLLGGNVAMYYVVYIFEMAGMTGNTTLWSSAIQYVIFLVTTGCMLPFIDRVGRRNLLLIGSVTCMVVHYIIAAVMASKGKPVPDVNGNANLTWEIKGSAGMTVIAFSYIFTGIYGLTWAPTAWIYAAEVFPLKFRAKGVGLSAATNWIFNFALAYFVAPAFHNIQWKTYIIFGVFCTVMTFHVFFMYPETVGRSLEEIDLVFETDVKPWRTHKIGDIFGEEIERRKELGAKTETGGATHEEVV

[2] = target: T2, Gal2 (Saccharomyces cerevisiae, UniProt P13181); test: as above; format: cell-based
T2 construct: full-length, pRS313-GAL2 (HXT7 promoter) in S. cerevisiae DS68625 (hxt1-7, gal2 deleted)
T2 sequence (P13181 1-574): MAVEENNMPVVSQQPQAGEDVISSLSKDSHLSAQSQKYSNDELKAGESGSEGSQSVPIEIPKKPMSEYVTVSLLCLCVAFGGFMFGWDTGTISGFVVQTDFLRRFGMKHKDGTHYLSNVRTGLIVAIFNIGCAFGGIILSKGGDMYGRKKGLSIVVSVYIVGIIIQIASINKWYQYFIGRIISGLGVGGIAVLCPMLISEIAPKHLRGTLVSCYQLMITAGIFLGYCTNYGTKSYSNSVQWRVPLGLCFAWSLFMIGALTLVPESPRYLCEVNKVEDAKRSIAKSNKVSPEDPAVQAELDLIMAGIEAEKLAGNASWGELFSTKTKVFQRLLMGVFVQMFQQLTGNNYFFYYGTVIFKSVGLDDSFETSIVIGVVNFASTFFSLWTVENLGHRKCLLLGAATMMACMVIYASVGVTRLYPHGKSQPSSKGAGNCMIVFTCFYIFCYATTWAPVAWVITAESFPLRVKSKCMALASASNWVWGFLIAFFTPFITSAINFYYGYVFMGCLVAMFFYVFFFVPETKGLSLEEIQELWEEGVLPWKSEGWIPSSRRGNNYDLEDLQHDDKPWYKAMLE

Row | inhibition at 100000 µM [1] [%] | inhibition at 100000 µM [2] [%] | SMILES
1 | 63 | 85 | OC[C@H]1OC(O)[C@H](O)[C@@H](O)[C@@H]1O (stereo partly drawn) [D-glucose]
2 | 22 | 29 | OC1OC[C@@H](O)[C@H](O)[C@H]1O (stereo partly drawn) [D-xylose]
